Patent publication US8871452B2, “Methods for treatment of cardiovascular disease” (The Brigham and Women's Hospital, Inc., priority 2000, dated 2014)
Entries after “also recorded” stand apart in the source; their conditions may differ. Numbered stars: 1 amine (or outer) side, 2 acyl side, 3 side chain; on linkers, the order of the positions; unused ones are H or OH. Bridge positions count the residues as written; N and C are the ends. Square brackets hold non-standard residues; d marks the D form. Peptide text beside a SMILES is read from it. I, II: the chains in the order shown. Actinocin(9to1) = Cc1c2oc3c(C)ccc(C(=O)[*:1])c3nc-2c(C(=O)[*:2])c(N)c1=O; NMeV = CN[C@H](C(=O)O)C(C)C; Sar = CNCC(=O)O

Experiments:
Fit-1 mRNA expression = assay: Northern blot of Fit-1 (T1/ST2) mRNA induction in cultured neonatal rat cardiac myocytes, with or without 8% cyclic mechanical strain; format: cell-based; settings: for induction of Fit-1 mRNA expression by 8% mechanical strain: FIG. 4, applied during strain, actinomycin D 5 μg/ml (2 and 4 hours), cyclohexamide 10 μg/ml; for strain-induced induction of Fit-1 mRNA expression / Fit-1 mRNA expression in the absence of strain: FIG. 3, H2O2 100 uM, TIRON 10 mN; for strain-induced induction of Fit-1 mRNA expression: 8% mechanical strain; for induction of Fit-1 mRNA expression in the absence of mechanical strain: FIG. 2, 3 hours, Ang II 50 nM; for induction of Fit-1 mRNA expression in the absence of mechanical strain / rank order potency for the induction of Fit-1 mRNA expression / induction of Fit-1 mRNA expression, agent alone: IL-1β 10 ng/ml; for induction of Fit-1 mRNA expression in the absence of mechanical strain / rank order potency for the induction of T1/ST2 mRNA expression: PMA 200 nM; for rank order potency for the induction of Fit-1 mRNA expression: 8% strain; for rank order potency for the induction of Fit-1 mRNA expression / induction of Fit-1 mRNA expression, agent alone: PMA 100 ng/ml; for induction of Fit-1 mRNA expression, agent alone: no strain; for rank order potency for the induction of T1/ST2 mRNA expression: strain 8%
Description: The approach to mechanical stimulation used an apparatus that has multiple platens that contact the underside of silicone elastomer membranes to apply a spatially isotropic biaxial strain profile to the membrane (Schaffer J L, et al., J Orthop Res, 1993, 12:709-719; and U.S. Provisional Patent Application Ser. No. 60/144,134 filed on Jul. 16, 1999 entitled “AN APPARATUS FOR STUDYING MYOCARDIAL MECHANICAL OVERLOAD HYPERTROPHY AND USES THREFOR, by Richard T. Lee, and bearing and express mail no. EL110243781US). Six individual 78 mm membranes can be stretched at once with varying amplitudes of strain by controlling displacement of each platen with a stepper motor. Measured Green strains are accurate to ˜±0.25% at strains from 1-14% (Cheng G C, et al., Circ Res, 1997, 80:28-36; Brown T D, J Biomechanics, 2000, 33:3-14). Throughout this study, 8% biaxial strain was used.
Neonatal rat ventricular myocytes (NRVM) from 1-day old Sprague-Dawley rats were isolated by previously described methods (Springhorn J P, and Claycomb W C., Biochem J, 1989; 258:73-78; Arstall M A, et al., J Mol Cell Cardiol, 1998, 30:1019-25). NRVM were plated on the coated membrane dish at a density of 2,000,000 cells/dish in DMEM containing 7% FCS and incubated 24 h. Approximate cell confluence was 85-90%. NRVM were then made quiescent by washing with 10 ml of Hanks' balanced salt solution (HBSS, 138 mM NaCl, 5.3 mM KCl, 4.0 mM NaHCO3, 1.3 mM CaCl2, 0.5 mM MgCl2, 0.4 mM MgSO4, 0.4 mM KH2PO4, 0.3 mM Na2HPO4, 5.6 mM glucose; Life Technologies, Inc., Rockville, Md.) twice and incubating with 26 ml of DMEM containing 0.2% FCS for 48-72 hours.
The cDNA clones for differentially expressed genes were obtained by PCR using the GenBank sequences. Each clone was sequenced from both 5′ and 3′ ends to confirm identity. Positive elements in the DNA microarray were confirmed by Northern blot hybridization analysis in at least three independent experiments using three different sources of NRVMs. Total RNA was isolated by the guanidium thiocyanate and phenol chloroform method (Chomcyznski, et al., Anal. Biochem., 1987, 162:156-159). For Northern blotting, 15 μg RNA was loaded on a 1.0% agarose-formaldehyde gel (2.0 mol/l), transferred to a nylon membrane (Amersham Pharmacia Biotech AB, Piscataway, N.J.), and UV cross-linked with a UV Stratalinker (Stratagene, Inc., La Jolla, Calif.). Each probe was hybridized with ExpressHyb solution (Clontech Labs., Inc., Palo Alto, Calif.) at 68° C. for 1 hour. The membrane was washed with 2×SSC, 0.05% SDS solution for 30 to 40 minutes and three times at room temperature and 0.1×SSC, 0.1% SDS solution with continuous shaking at 50° C. for 40 minutes. The membrane was exposed to film at −80° C., and radiographs were scanned and analyzed with Optimas 5.0 software (Optimas Co./Media Cybernetics, Silver Springs, Md.). Densitometric units were normalized to the ethidium-stained 28S ribosomal subunit on the membrane.
T1/ST2 mRNA is induced by mechanical strain in cultured neonatal cardiac myocytes. Neonatal rat ventricular myocytes were isolated by collagenase digestion, plated on fibronectin-coated silicone membrane dishes at a density of 3.5 million cells/dish in 13 ml media as previously described (Yamamoto K, et al. J Biol Chem. 1999; 274:21840-21846). This technique yields cultures with ≧95% myocytes. Mechanical deformation was applied using a device that provides uniform biaxial cyclic strain as previously described (Yamamoto K, et al. J Biol Chem. 1999; 274:21840-21846). RNA was extracted (Qiagen) and Northern blotting was performed using as a probe a ^32P-labelled 600 bp PCR fragment specific to rat T1/ST2. Maximal induction occurs at 3 hours, is sustained for 9 hours and declines by 15 hours.

T1/ST2 mRNA = T1/ST2 mRNA induction in human adult vascular smooth muscle cells; format: cell-based
[1] = FIG. 9, interleukin-1 10 ng/ml, 1 and 3 hours

## Cc1c2oc3c(C)ccc(C(=O)N[C@@H]4C(=O)N[C@H](C(C)C)C(=O)N5CCC[C@H]5C(=O)N(C)CC(=O)N(C)[C@@H](C(C)C)C(=O)O[C@@H]4C)c3nc-2c(C(=O)N[C@@H]2C(=O)N[C@H](C(C)C)C(=O)N3CCC[C@H]3C(=O)N(C)CC(=O)N(C)[C@@H](C(C)C)C(=O)O[C@@H]2C)c(N)c1=O [Actinomycin D, actinomycin D] (I: T[dV]P[Sar][NMeV] / II: T[dV]P[Sar][NMeV]; ester I:1-I:C, II:1-II:C; linker I:N-II:N via Actinocin(9to1))
Fit-1 mRNA expression
  induction of Fit-1 mRNA expression by 8% mechanical strain: blocked

## OO [H2O2, hydrogen peroxide]
Fit-1 mRNA expression
  strain-induced induction of Fit-1 mRNA expression: blocks
  Fit-1 mRNA expression in the absence of strain: does not induce

## CCCCCCCCCCCCCC(=O)O[C@@H]1[C@@H](C)[C@@]2(O)[C@@H](C=C(CO)C[C@]3(O)C(=O)C(C)=C[C@@H]23)[C@@H]2C(C)(C)[C@]12OC(C)=O [PMA]
Fit-1 mRNA expression
  induction of Fit-1 mRNA expression in the absence of mechanical strain: associated with an induction
Fit-1 mRNA expression; FIG. 5
  rank order potency for the induction of Fit-1 mRNA expression: PMA>strain>IL-1β
  induction of Fit-1 mRNA expression, agent alone: strongest induction
Fit-1 mRNA expression; [1]
  rank order potency for the induction of T1/ST2 mRNA expression: PMA>strain>interleukin-1β; also recorded: PMA>strain>IL-1
T1/ST2 mRNA
  induction of T1/ST2 mRNA: not

## O=S(=O)(O)c1cc(O)c(O)c(S(=O)(=O)O)c1 [TIRON]
Fit-1 mRNA expression
  strain-induced induction of Fit-1 mRNA expression: slightly attenuated
  Fit-1 mRNA expression in the absence of strain: slightly attenuated

## C[C@@H]1C[C@@H]([C@H](O)CC2CC(=O)NC(=O)C2)C(=O)[C@@H](C)C1 [cyclohexamide]
Fit-1 mRNA expression
  induction of Fit-1 mRNA expression by 8% mechanical strain: blocked

## IL-1β: interleukin-1β, cytokine
Fit-1 mRNA expression
  induction of T1/ST2 RNA, agent alone: induce
  induction of Fit-1 mRNA expression in the absence of mechanical strain: associated with an induction
Fit-1 mRNA expression; FIG. 5, 8% strain plus IL-1β 10 ng/ml
  induction of Fit-1 by mechanical strain in the presence of IL-1β: not further increased
Fit-1 mRNA expression; FIG. 5
  rank order potency for the induction of Fit-1 mRNA expression: PMA>strain>IL-1β
  induction of Fit-1 mRNA expression, agent alone: induced
Fit-1 mRNA expression; FIG. 9, 8% strain plus interleukin-1 10 ng/ml, 1 and 3 hours
  induction of T1/ST2 by mechanical strain in the presence of interleukin-1β: not further increased
Fit-1 mRNA expression; [1]
  rank order potency for the induction of T1/ST2 mRNA expression: PMA>strain>interleukin-1β
Fit-1 mRNA expression; FIG. 9, interleukin-1 10 ng/ml, 1 and 3 hours, listed as IL-1
  rank order potency for the induction of T1/ST2 mRNA expression: PMA>strain>IL-1
Fit-1 mRNA expression; FIG. 10, interleukin-1 10 ng/ml, 4 hours
  induction of T1/ST2 mRNA in the presence of infection with control adenovirus: induced
T1/ST2 mRNA
  induction of T1/ST2 mRNA: induced

## angiotensin II (DRVYIHPF; Angiotensin-2; UniProt P01019 25-32, looked up)
Fit-1 mRNA expression
  induction of Fit-1 mRNA expression in the absence of mechanical strain: did not induce

## tumor necrosis factor
T1/ST2 mRNA
  induction of T1/ST2 mRNA: not
